Reference: patent US20030211075A1 (priority 2001, published 2003)

Legend:
F9 sarcoma = F9 sarcoma mouse model, tumor tissue necrosis; format: in vivo; details: tTF 4 μg, endotoxin 0.5 μg; three days; spontaneous necrosis 40-50%
Protocol: 1×10^7 F9 sarcoma cells were injected subcutaneously into the right flank of balb/c nude mice. Subcutanous tumors were measured with a caliper in three perpendicular directions a, b, and c and volumes calculated according to the formula V=π/6×a×b×c. Treatment was initiated when subcutaneous tumors reached a size of 150 to 300 μl.
Reagents were administered into the lateral tail vein.
Mice were closely observed after treatment for clinical signs of toxicity and clinical status was documented at defined time points. Three days after treatment, mice were sacrificed and tumors were harvested. Paraffin embedded tissues were stained with hematoxilin and eosin (H&E). Tissue sections were analyzed on a light microscope by two independent investigators and histological findings were documented. Tumor sections with necrotic areas were scanned with a GS-700 imaging densitometer (Biorad, Hercules, Calif.) and areas of necrosis were calculated as % of total section area.

[1] = system: L540 human Hodgkin's tumors; assay: Anti-VCAM-1•tTF coaguligand in L540 tumor-bearing mice; format: in vivo, mouse
Protocol: Before coaguligand injection, tumors were viable, having a uniform morphology lacking regions of necrosis. […] Within four hours of coaguligand injection, 40-70% of blood vessels were thrombosed, despite the initial staining of only 20-30% of tumor blood vessels. The thrombosed vessels contained occlusive platelet aggregates, packed erythrocytes and fibrin. In several regions, the blood vessels had ruptured, spilling erythrocytes into the tumor interstitium.
The drug was administered i.v. 3 times at intervals of 4 days.

[2] = system: L540 human Hodgkin's disease tumors; assay: Treatment of L540rec tumor-bearing SCID mice with tTF and/or endotoxin, tumor tissue necrosis by densitometry; format: in vivo, mouse; details: for % tumor necrosis: tTF alone (4 μg; 4 μg or 16 μg), no endotoxin, three days after i.v. treatment; for anti-tumor effect: tTF alone
Protocol: For in vivo studies, a metastasizing mouse model for human Hodgkin's lymphoma was used. 1×10^7 L540rec cells were injected subcutaneously into the right flank of SCID mice resulting in a subcutaneous tumor with lymph node metastases in the regional lymph node stations. Subcutanous tumors were measured with a caliper in three perpendicular directions a, b, and c, and volumes calculated according to the formula V=π/6×a×b×c.
Treatment was initiated when subcutaneous tumors reached a size of 150 to 300 μl. Reagents were administered into the lateral tail vein.
Mice were closely observed after treatment for clinical signs of toxicity and clinical status was documented at defined time points (5 minutes, 10 minutes, 15 minutes, 30 minutes. 1 hour. 2 hours, 24 hours, 48 hours, 72 hours). Blood samples were taken from the tail vein at 1 hour, 2 hours and 24 hours to measure TNFα blood levels. Three days after treatment, the mice were anesthetized, blood samples were taken from the vena cava for coagulation tests, and an autopsy was performed to document any changes in gross pathology. Tumors, lymph node metastases and the major normal organs (heart, lung, brain, liver, kidney, colon, spleen, pancreas) were harvested and prepared for histological analysis.
Tissue samples harvested at the time of autopsy were fixed in 3% NBF (normal buffered formalin) and embedded in paraffin wax. Tissue blocs were cut, dewaxed and stained with hematoxilin and eosin (H&E). Tissue sections were analyzed on a light microscope by two independent investigators and histological findings were documented. Tumor sections with necrotic areas were scanned with a GS-700 imaging densitometer (Biorad, Hercules, Calif.) and areas of necrosis were calculated as % of total section area. Statistical Analysis was performed using SPSS software (SPSS Science Software, Erkrath, Germany) applying the Mann-Whitney-U-test for ungrouped data.

[3] = system: C1300 mouse neuroblastoma; assay: In vivo tumor thrombosis, C1300
Text: (§1) Tumor test systems were of four types: i) 3LL mouse lung carcinoma growing subcutaneously in C57BL/6 mice; ii) C1300 mouse neuroblastoma growing subcutaneously in BALB/c nu/nu mice; iii) HT29 human colorectal carcinoma growing subcutaneously in BALB/c nu/nu mice; and iv) C1300 Muγ mouse neuroblastoma growing subcutaneously in BALB/c nu/nu mice. The C1300 Muγ tumor is an interferon-y secreting transfectant derived from the C 1300 tumor (Watanabe et al., 1989).
(§2) To establish tumors, 10^6 to 1.5×10^7 tumor cells were injected subcutaneously into the right anterior flank of the mice. When tumors had grown to various sizes, mice were randomly assigned to different study groups. […] Fab′, or bispecific antibody. Other mice received equivalent quantities IgG, Fab′ or bispecific antibody alone. The injections were performed slowly into one of the tail veins over approximately 45 seconds, usually followed by 200 μl of saline.
(§3) Twenty-four hours after being injected with tTF or immunoglobulin-tTF conjugates, the mice were anesthetized with metophane and were exsanguinated by perfusion with heparinized saline. Tumors and normal tissues were excised and immediately fixed in 3% (v/v) formalin. Paraffin sections were cut and stained with hematoxylin and eosin. Blood vessels having open lumens containing erythrocytes and blood vessels containing thrombi were counted. […]

[4] = system: HT29 human colorectal carcinoma; assay: HT29 xenograft, tumor growth and necrosis after tTF constructs and Factor VIIa; format: in vivo, mouse
3LL mouse lung carcinoma = assay: In vivo tumor thrombosis, 3LL; details: large (>800 mm^3) tumors
Text: as §1, §2, §3

A20 lymphoma cells = assay: In vitro coagulation assay on A20 cells; format: cell-based, mouse
[5] = system: H460 human non-small cell lung carcinoma; assay: Anti-tumor effects, H460; format: in vivo, mouse; details: second treatment at 900 mm^3
Protocol: The tumor test systems were: i) L540 human Hodgkin's disease tumors growing in SCID mice; ii) C1300 Muγ (interferon-secreting) neuroblastoma growing in nu/nu mice; iii) H460 human non-small cell lung carcinoma growing in nu/nu mice. To establish solid tumors, 1.5×10^7 tumor cells were injected subcutaneously into the right anterior flank of SCID or BALB/c nu/nu mice (Charles River Labs., Wilmingham, Mass.). When the tumors had grown to various diameters, mice were assigned to different experimental groups, each containing 4 to 9 mice.
Other mice received equivalent quantities of bispecific antibody alone. The injections were performed over ˜45 seconds into one of the tail veins, followed by 200 μl of saline. The infusions were repeated six days later. Perpendicular tumor diameters were measured at regular intervals and tumor volumes were calculated.

immobilized tTF = biological target: T1, immobilized tTF (Homo sapiens, UniProt P13726); assay: Real time binding of tTF to immobilized tTF (surface plasmon resonance); details: tTF 30 μg/ml alone or preincubated with endotoxin or factor VIIa
T1 construct: amino acid 1-219 of the mature protein; made in house; host or cells: E. coli

[6] = system: C1300 Muγ mouse neuroblastoma; assay: C1300 (Muγ) tumor model, coaguligand and tTF: thrombosis and anti-tumor effects; format: in vivo

T1 sequence (P13726 33-251): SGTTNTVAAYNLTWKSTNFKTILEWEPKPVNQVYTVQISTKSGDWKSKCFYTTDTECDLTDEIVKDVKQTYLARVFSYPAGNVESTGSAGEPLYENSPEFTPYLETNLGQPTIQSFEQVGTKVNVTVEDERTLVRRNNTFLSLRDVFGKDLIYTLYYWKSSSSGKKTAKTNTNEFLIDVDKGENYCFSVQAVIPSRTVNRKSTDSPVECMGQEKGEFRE

## tTF: extracellular domain of the mature Tissue Factor protein (amino acid 1-219), recombinant truncated human Tissue Factor
F9 sarcoma
  tumor tissue necrosis: 45%
[1]; equivalent quantities
  control reagents that caused thrombosis: None
[1]; i.v. 3 times at intervals of 4 days
  effect on tumor growth: did not affect tumor growth
[2]
  % tumor necrosis: 0%
[2]; listed as TTF
  % tumor necrosis: 4%
[2]; listed as endotoxin-free tTF
  % tumor necrosis: 0%
[2]; 4 μg to 16 μg
  anti-tumor effect: no anti-tumor effect
[2]; 100 μg
  anti-tumor effect: anti-tumor effects begin to appear
[3]; large tumors (>1000 mm^3), 24 hours after injection
  thrombosis of tumor vessels: virtually all vessels were thrombosed
[3]; small (<500 mm^3) tumors
  effect on tumor vessels: largely unaffected
[4]; large (1200 mm^3) tumors
  duration of discontinued growth after treatment: about 7 days
[4]; mouse, in vivo, iv
  average area of necrosis in tumor sections: some necrosis
3LL mouse lung carcinoma
  tumor vessels thrombosed, average: 62%
A20 lymphoma cells; 0.1 nM Factor VIIa
  increase in coagulation-inducing potency: 2-5 fold
A20 lymphoma cells; 10^−10 M tTF219, 13.5 nM Factor VIIa
  plasma coagulation time: 20 s
A20 lymphoma cells; 10^−10 M tTF219, absence of Factor VIIa
  plasma coagulation time: 60 s
A20 lymphoma cells; localized on A20 cells via bispecific antibody B21-2/10H10
  concentration at which plasma coagulated in 50 seconds: 3 nM
A20 lymphoma cells; tTF bound to A20 cells by B21-2/10H10, mouse plasma, untreated cells 164 seconds
  time to visible fibrin strands: 36 s
[5]
  tumor volume after second treatment: 550 mm^3
Immobilized tTF
  binding to immobilized tTF: did not bind to or homodimerize with immobilized tTF
[6]; 24 hours after injection of tTF219
  thrombosis of tumor vessels: practically all vessels in all regions of the tumor were thrombosed
[6]; paraffin sections 30 minutes to 24 hours after administration
  thrombi or morphological abnormalities in normal organs: neither thrombi, nor histological or morphological abnormalities were visible
[6]; small (<500 mm^3) tumors
  effect on tumor vessels: largely unaffected
[6]; tTF alone or mixed with control bispecific antibodies
  tumor growth versus antibodies or saline alone: grew significantly more slowly
